Assay results as given in US8999990B2, “Inhibitors of the renal outer medullary potassium channel” (Merck Sharp & Dohme Corp., priority 2011, dated 2015).
pIC50: −log10 of the molar value.

molecular target: T1, hROMK (hKir1.1) (Homo sapiens, UniProt P48048); test: Thallium Flux Assay; type: cell-based; conditions: HEK293 cells stably expressing hROMK; FLIPR-Tetra, 384 wells; read-out: Thallium Flux IC50
T1 construct: expressed in transfected cells
T1 sequence (P48048 1-391): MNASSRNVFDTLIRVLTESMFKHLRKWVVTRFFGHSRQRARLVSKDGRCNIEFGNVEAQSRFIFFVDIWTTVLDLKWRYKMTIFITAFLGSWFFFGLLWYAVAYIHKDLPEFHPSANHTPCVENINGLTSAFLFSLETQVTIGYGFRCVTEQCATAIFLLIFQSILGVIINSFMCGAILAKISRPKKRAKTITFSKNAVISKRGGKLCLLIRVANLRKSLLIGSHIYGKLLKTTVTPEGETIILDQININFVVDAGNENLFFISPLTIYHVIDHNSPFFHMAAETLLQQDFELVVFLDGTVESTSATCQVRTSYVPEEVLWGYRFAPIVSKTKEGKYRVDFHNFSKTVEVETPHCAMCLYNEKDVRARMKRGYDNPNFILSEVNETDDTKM
Description: Several assays may be used to measure functional inhibition of the ROMK channel by compounds of the instant invention. One assay that was used to test the activity of compounds in the Examples is the functional ^86Rb^+ efflux assay described below, that measures the ability of ROMK to permeate ^86Rb^+, in the absence or presence of test compound. Under control conditions, cells loaded with ^86Rb^+ and incubated in Rb^+-free medium display a time-dependent efflux of the isotope, the rate of which depends on number of functional channels. When cells are incubated in the presence of a channel inhibitor, efflux of ^86Rb^+ is prevented in a concentration-dependent manner, and IC50 values of inhibition by compounds can be accurately determined. This assay has been established with cell lines expressing either human, rat or dog ROMK channels, and can operate in 96- or 384-well format. Importantly, the human, rat, and dog ^86Rb^+ efflux assays can be carried out in the presence of up to 100% serum allowing, therefore, an accurate estimation of the effect of protein binding on the inhibitory activity of compounds of interest. Another ROMK functional assay used to test the activity of compounds in the Examples (described below) makes use of the ability of thallium to permeate through open ROMK channels and increase the fluorescence of a dye previously loaded into the cells. Under control conditions, cells loaded with dye and exposed to thallium-containing medium display a time-dependent increase in fluorescence, the rate of which depends on number of functional channels. When cells are incubated in the presence of a channel inhibitor, the increase in fluorescence is attenuated in a concentration-dependent manner, and IC50 values of inhibition by compounds can be accurately determined. This assay has been established with cell lines expressing either human, or rat ROMK channels, and operates in 384-well format.
HEK293 cells stably expressing hROMK (hKir1.1) were grown at 37° C. in a 10% CO2 humidified incubator in complete growth media: Dulbecco's Modified Eagle Medium supplemented with non-essential amino acids, Penicillin/Streptomycin/Glutamine, G418 and FBS. At >80% confluency, aspirate the media from the flask and rinse with 10 mL Calcium/Magnesium-free PBS. Add 5 mL of 1× trypsin (prepared in Ca/Mg Free PBS) to T-225 flask and return flask to 37° C./CO2 incubator for 2-3 minutes. To dislodge the cell, gently bang the side of the flask with your hand. Triturate the cells completely and then transfer the cells to 25 mL complete media. Centrifuge at 1,500 rpm for 6 min followed by resuspension in complete growth media and determine cell concentration. For typical re-seeding, 4E6 cells/T-225 flask will attain >80% confluency in 4 days. Under ideal growth conditions and appropriate tissue culture practices, this cell line is stable for 40-45 passages.
• FluxOR™ Reagent (Component A) • FluxOR™ Assay Buffer (Component B)—10× Concentrate • PowerLoad™ Concentrate (Component C)—100× Concentrate • Probenecid (Component D)—Lyophilized sample is kept at −20° C. Water soluble, 100× after solubilization in 1 mL water. […] Store at 4° C. • Thallium sulfate (Tl2SO4) Concentrate (Component G)—50 mM in water. […]

pIC50	Compound
6.11	Cc1c(CCN2CCN(CCc3ccc(C#N)cn3)C(=O)C2)ccc2c1COC2=O [Example 54, 6-(2-{4-[2-(4-Methyl-1-oxo-1,3-dihydro-2-benzofuran-5-yl)ethyl]-2-oxopiperazin-1-yl}ethyl)pyridine-3-carbonitrile]
7.22	Cc1c([C@@H](O)CN2CCN(C3CCc4cc(C#N)ccc4C3)C(=O)C2)ccc2c1COC2=O (stereo partly drawn) [Example 47, 6-{4-[(2R)-2-Hydroxy-2-(4-methyl-1-oxo-1,3-dihydro-2-benzofuran-5-yl)ethyl]-2-oxopiperazin-1-yl}-5,6,7,8-tetrahydronaphthalene-2-carbonitrile]
6.63	Cc1c(CCN2CCN(C[C@H](O)c3ccc4c(c3C)COC4=O)CC2=O)ccc2c1COC2=O [Example 52, 4-[(2R)-2-hydroxy-2-(4-methyl-1-oxo-1,3-dihydro-2-benzofuran-5-yl)ethyl]-1-[2-(4-methyl-1-oxo-1,3-dihydro-2-benzofuran-5-yl)ethyl]piperazin-2-one]
6.71	COc1ccc(C(=O)CN2CCN(C[C@H](O)c3ccc4c(c3C)COC4=O)CC2=O)c(C)c1C#N [Example 50, 3-({4-[(2R)-2-Hydroxy-2-(4-methyl-1-oxo-1,3-dihydro-2-benzofuran-5-yl)ethyl]-2-oxopiperazin-1-yl}acetyl)-6-methoxy-2-methylbenzonitrile]
7.05	Cc1cc2c(cc1C(O)CN1CCN(C3CCc4cc(C#N)ccc4C3)C(=O)C1)COC2=O (stereo not shown) [Example 49, 6-{4-[2-Hydroxy-2-(6-methyl-1-oxo-1,3-dihydro-2-benzofuran-5-yl)ethyl]-2-oxopiperazin-1-yl}-5,6,7,8-tetrahydronaphthalene-2-carbonitrile]

The remaining lines, values behind:

Compound	pIC50
Cc1c(C(O)CN2CCN(C[C@@H](O)c3ccc4c(c3C)COC4=O)CC2=O)ccc2c1COC2=O (stereo partly drawn) [Example 46, 4-[(2S)-2-Hydroxy-2-(4-methyl-1-oxo-1,3-dihydro-2-benzofuran-5-yl)ethyl]-1-[2-hydroxy-2-(4-methyl-1-oxo-1,3-dihydro-2-benzofuran-5-yl)ethyl]piperazin-2-one]	6.57
Cc1c(C(=O)CN2CCN(C[C@H](O)c3ccc4c(c3C)COC4=O)CC2=O)ccc(F)c1C#N [Example 51, 6-Fluoro-3-({4-[(2R)-2-hydroxy-2-(4-methyl-1-oxo-1,3-dihydro-2-benzofuran-5-yl)ethyl]-2-oxopiperazin-1-yl}acetyl)-2-methylbenzonitrile]	6.90
Cc1c(C(=O)CN2CCN(C[C@H](O)c3ccc4c(c3C)COC4=O)CC2=O)ccc2c1COC2=O [Example 48, 4-[(2R)-2-Hydroxy-2-(4-methyl-1-oxo-1,3-dihydro-2-benzofuran-5-yl)ethyl]-1-[2-(4-methyl-1-oxo-1,3-dihydro-2-benzofuran-5-yl)-2-oxoethyl]piperazin-2-one]	7.10
Cc1c(C(O)CN2CCN(CCc3ccc(C#N)cn3)C(=O)C2)ccc2c1COC2=O (single isomer, unassigned) [Example 55, 6-(2-{4-[2-Hydroxy-2-(4-methyl-1-oxo-1,3-dihydro-2-benzofuran-5-yl)ethyl]-2-oxopiperazin-1-yl}ethyl)pyridine-3-carbonitrile]	6.51
Cc1c(CCN2CCN(C[C@@H](O)c3ccc4c(c3C)COC4=O)CC2=O)ccc2c1COC2=O [Example 53, 4-[(2S)-2-hydroxy-2-(4-methyl-1-oxo-1,3-dihydro-2-benzofuran-5-yl)ethyl]-1-[2-(4-methyl-1-oxo-1,3-dihydro-2-benzofuran-5-yl)ethyl]piperazin-2-one]	6.18
Cc1c(C(O)CN2CCN(C[C@H](O)c3ccc4c(c3C)COC4=O)CC2=O)ccc2c1COC2=O (stereo partly drawn) [Example 45, 4-[(2R)-2-Hydroxy-2-(4-methyl-1-oxo-1,3-dihydro-2-benzofuran-5-yl)ethyl]-1-[2-hydroxy-2-(4-methyl-1-oxo-1,3-dihydro-2-benzofuran-5-yl)ethyl]piperazin-2-one]	6.17

same assay, conditions: text of Example 55; separated stereo-isomer; read-out: IC50 in the Thallium Flux Assay

pIC50	Compound
< 6.00	Cc1c(C(O)CN2CCN(CCc3ccc(C#N)cn3)C(=O)C2)ccc2c1COC2=O (single isomer, unassigned) [Isomer A, 6-(2-{4-[2-Hydroxy-2-(4-methyl-1-oxo-1,3-dihydro-2-benzofuran-5-yl)ethyl]-2-oxopiperazin-1-yl}ethyl)pyridine-3-carbonitrile]

same assay, conditions: text of Example 55; separated stereo-isomers

potency in the Thallium Flux Assay compared with Isomer A	Compound
more potent	Cc1c(C(O)CN2CCN(CCc3ccc(C#N)cn3)C(=O)C2)ccc2c1COC2=O (single isomer, unassigned) [Example 55, 6-(2-{4-[2-Hydroxy-2-(4-methyl-1-oxo-1,3-dihydro-2-benzofuran-5-yl)ethyl]-2-oxopiperazin-1-yl}ethyl)pyridine-3-carbonitrile]
